According to ChEMBL document CHEMBL1147331, “Cytotoxic and antimalarial bisbenzylisoquinoline alkaloids from Stephania erecta” (J Nat Prod, 1993):
Converted amounts (≈) assume the structure as drawn.

What was measured:
Plasmodium falciparum [1] = experiment: Antimalarial activity after 24 hrs against chloroquine-sensitive Plasmodium falciparum D6 infected type A+ human erythrocytes by [3H]hypoxanthine uptake; assay type: functional; settings: read-out: ED50 (the source's name)
Plasmodium falciparum [2] = experiment: Antimalarial activity after 24 hrs against chloroquine-resistant Plasmodium falciparum W2 infected type A+ human erythrocytes by [3H]hypoxanthine uptake; assay type: functional; settings: read-out: ED50 (the source's name)
[3] = Cytotoxicity against human BCA1 cells after 3 days by sulforhodamine B assay; assay type: cell-based; settings: read-out: ED50
[4] = Cytotoxicity against human HT1080 cells after 3 days by sulforhodamine B assay; assay type: cell-based, HT-1080; settings: read-out: ED50
[5] = Cytotoxicity against human LUC1 cells after 3 days by sulforhodamine B assay; assay type: cell-based; settings: read-out: ED50
[6] = Cytotoxicity against human SK-MEL-2 cells after 3 days by sulforhodamine B assay; assay type: cell-based; settings: read-out: ED50
[7] = Cytotoxicity against human Col1 cells after 3 days by sulforhodamine B assay; assay type: cell-based; settings: read-out: ED50
[8] = Cytotoxicity against human KB cells after 3 days by sulforhodamine B assay; assay type: cell-based; settings: read-out: ED50
[9] = Cytotoxicity against human KBV1 cells after 3 days by sulforhodamine B assay; assay type: cell-based, KB-V1; settings: read-out: ED50
[10] = Cytotoxicity against mouse P388 cells after 2 days by sulforhodamine B assay; assay type: cell-based; settings: read-out: ED50
[11] = Cytotoxicity against human A431 cells after 3 days by sulforhodamine B assay; assay type: cell-based, A-431; settings: read-out: ED50
[12] = Cytotoxicity against human LNCAP cells after 3 days by sulforhodamine B assay; assay type: cell-based; settings: read-out: ED50
[13] = Cytotoxicity against human ZR-75-1 cells after 3 days by sulforhodamine B assay; assay type: cell-based; settings: read-out: ED50
[14] = Selectivity index, ratio of ED50 for human BCA1 cells to ED50 for chloroquine-sensitive Plasmodium falciparum D6; assay type: toxicity, cell-based; settings: read-out: Ratio ED50
[15] = Selectivity index, ratio of ED50 for human BCA1 cells to ED50 for chloroquine-resistant Plasmodium falciparum W2; assay type: toxicity, cell-based; settings: read-out: Ratio ED50
[16] = Selectivity index, ratio of ED50 for human HT1080 cells to ED50 for chloroquine-sensitive Plasmodium falciparum D6; assay type: toxicity, cell-based, HT-1080; settings: read-out: Ratio ED50
[17] = Selectivity index, ratio of ED50 for human HT1080 cells to ED50 for chloroquine-resistant Plasmodium falciparum W2; assay type: toxicity, cell-based, HT-1080; settings: read-out: Ratio ED50
[18] = Selectivity index, ratio of ED50 for human LUC1 cells to ED50 for chloroquine-sensitive Plasmodium falciparum D6; assay type: toxicity, cell-based; settings: read-out: Ratio ED50
[19] = Selectivity index, ratio of ED50 for human LUC1 cells to ED50 for chloroquine-resistant Plasmodium falciparum W2; assay type: toxicity, cell-based; settings: read-out: Ratio ED50
[20] = Selectivity index, ratio of ED50 for human MEL2 cells to ED50 for chloroquine-sensitive Plasmodium falciparum D6; assay type: toxicity, cell-based; settings: read-out: Ratio ED50
[21] = Selectivity index, ratio of ED50 for human MEL2 cells to ED50 for chloroquine-resistant Plasmodium falciparum W2; assay type: toxicity, cell-based; settings: read-out: Ratio ED50
[22] = Selectivity index, ratio of ED50 for human COL1 cells to ED50 for chloroquine-sensitive Plasmodium falciparum D6; assay type: toxicity, cell-based; settings: read-out: Ratio ED50
[23] = Selectivity index, ratio of ED50 for human COL1 cells to ED50 for chloroquine-resistant Plasmodium falciparum W2; assay type: toxicity, cell-based; settings: read-out: Ratio ED50
[24] = Selectivity index, ratio of ED50 for human KB cells to ED50 for chloroquine-sensitive Plasmodium falciparum D6; assay type: toxicity, cell-based; settings: read-out: Ratio ED50
[25] = Selectivity index, ratio of ED50 for human KB cells to ED50 for chloroquine-resistant Plasmodium falciparum W2; assay type: toxicity, cell-based; settings: read-out: Ratio ED50
[26] = Selectivity index, ratio of ED50 for human KB-V1 cells to ED50 for chloroquine-sensitive Plasmodium falciparum D6; assay type: toxicity, cell-based; settings: read-out: Ratio ED50
[27] = Selectivity index, ratio of ED50 for human KB-V1 cells to ED50 for chloroquine-resistant Plasmodium falciparum W2; assay type: toxicity, cell-based; settings: read-out: Ratio ED50
[28] = Selectivity index, ratio of ED50 for human LNCaP cells to ED50 for chloroquine-sensitive Plasmodium falciparum D6; assay type: toxicity, cell-based; settings: read-out: Ratio ED50
[29] = Selectivity index, ratio of ED50 for human LNCaP cells to ED50 for chloroquine-resistant Plasmodium falciparum W2; assay type: toxicity, cell-based; settings: read-out: Ratio ED50
[30] = Selectivity index, ratio of ED50 for human ZR-75-1 cells to ED50 for chloroquine-sensitive Plasmodium falciparum D6; assay type: toxicity, cell-based; settings: read-out: Ratio ED50
[31] = Selectivity index, ratio of ED50 for human ZR-75-1 cells to ED50 for chloroquine-resistant Plasmodium falciparum W2; assay type: toxicity, cell-based; settings: read-out: Ratio ED50
in vitro [32] = settings: mouse, P388 cells
Description: Selectivity index, ratio of ED50 for mice (Mus musculus) P388 cells to ED50 for chloroquine-sensitive Plasmodium falciparum D6

in vitro [33] = settings: mouse, P388 cells; remark: listed apart in the source
Description: Selectivity index, ratio of ED50 for mice (Mus musculus) P388 cells to ED50 for chloroquine-resistant Plasmodium falciparum W2

in vitro [34] = settings: human, A431 cells
Description: Selectivity index, ratio of ED50 for human A431 cells to ED50 for chloroquine-sensitive Plasmodium falciparum D6

in vitro [35] = settings: human, A431 cells; remark: listed apart in the source
Description: Selectivity index, ratio of ED50 for human A431 cells to ED50 for chloroquine-resistant Plasmodium falciparum W2

| Structure (SMILES) | EC50 (Plasmodium falciparum [1]) [µg/mL] | EC50 (Plasmodium falciparum [2]) [µg/mL] | CC50 at 72 h [3] [µg/mL] | CC50 at 72 h [4] [µg/mL] | CC50 at 72 h [5] [µg/mL] | CC50 at 72 h [6] [µg/mL] | CC50 at 72 h [7] [µg/mL] | CC50 at 72 h [8] [µg/mL] | CC50 at 72 h [9] [µg/mL] | CC50 at 48 h [10] [µg/mL] | CC50 at 72 h [11] [µg/mL] | CC50 at 72 h [12] [µg/mL] | CC50 at 72 h [13] [µg/mL] | selectivity ratio [14] | selectivity ratio [15] | selectivity ratio [16] | selectivity ratio [17] | selectivity ratio [18] | selectivity ratio [19] | selectivity ratio [20] | other results |
| --- | --- | --- | --- | --- | --- | --- | --- | --- | --- | --- | --- | --- | --- | --- | --- | --- | --- | --- | --- | --- | --- |
| C=C[C@H]1CN2CC[C@H]1C[C@H]2[C@H](O)c1ccnc2ccc(OC)cc12 [QUININE] | 0.0076 (≈ 0.0234 µM) | 0.0308 (≈ 0.0949 µM) | > 20 | > 20 | > 20 | > 20 | > 20 | > 20 | 5.6 (≈ 17.3 µM) | > 5 | > 20 | > 20 | > 20 | > 2630 | 649 | > 2630 | 649 | > 2630 | 649 | > 2630 | selectivity ratio [21]: 649; selectivity ratio [22]: > 2630; selectivity ratio [23]: 649; selectivity ratio [24]: > 2630; selectivity ratio [25]: 649; selectivity ratio [26]: 737; selectivity ratio [27]: 182; selectivity ratio [28]: > 2630; selectivity ratio [29]: 649; selectivity ratio [30]: > 2630; selectivity ratio [31]: 649; selectivity ratio (in vitro [32]): > 658; selectivity ratio (in vitro [33]): > 658; selectivity ratio (in vitro [34]): > 2630; selectivity ratio (in vitro [35]): 649 |
| COc1ccc2cc1Oc1ccc(cc1)C[C@H]1c3c(cc4c(c3Oc3cc5c(cc3OC)CCN(C)[C@@H]5C2)OCO4)CCN1C [CEPHARANTHINE] | 0.14 (≈ 0.231 µM) | 0.295 (≈ 0.486 µM) | 4.7 (≈ 7.75 µM) | 6.1 (≈ 10.1 µM) | 8.8 (≈ 14.5 µM) | 14.5 (≈ 23.9 µM) | 9 (≈ 14.8 µM) | 5.9 (≈ 9.72 µM) | 0.9 (≈ 1.48 µM) | 0.3 (≈ 0.494 µM) | 2.1 (≈ 3.46 µM) | 5.6 (≈ 9.23 µM) | 1 (≈ 1.65 µM) | 34 | 16 | 44 | 21 | 52 | 25 | 103 | selectivity ratio [21]: 49; selectivity ratio [22]: 64; selectivity ratio [23]: 31; selectivity ratio [24]: 42; selectivity ratio [25]: 20; selectivity ratio [26]: 6; selectivity ratio [27]: 3; selectivity ratio [28]: 40; selectivity ratio [29]: 19; selectivity ratio [30]: 7; selectivity ratio [31]: 3; selectivity ratio (in vitro [32]): 2; selectivity ratio (in vitro [33]): 1; selectivity ratio (in vitro [34]): 15; selectivity ratio (in vitro [35]): 7 |
| COc1ccc2cc1Oc1ccc(cc1)C[C@H]1c3cc(c(OC)cc3CCN1C)Oc1c(OC)c(OC)cc3c1[C@@H](C2)NCC3 | 0.0661 (≈ 0.109 µM) | 0.0453 (≈ 0.0744 µM) | 4.4 (≈ 7.23 µM) | 7.5 (≈ 12.3 µM) | 9.8 (≈ 16.1 µM) | 8.2 (≈ 13.5 µM) | 7.6 (≈ 12.5 µM) | 6.3 (≈ 10.3 µM) | 2.8 (≈ 4.6 µM) | 4.7 (≈ 7.72 µM) | 4.7 (≈ 7.72 µM) | 4.1 (≈ 6.74 µM) | 1.8 (≈ 2.96 µM) | 67 | 97 | 114 | 166 | 148 | 216 | 124 | selectivity ratio [21]: 181; selectivity ratio [22]: 115; selectivity ratio [23]: 168; selectivity ratio [24]: 95; selectivity ratio [25]: 139; selectivity ratio [26]: 42; selectivity ratio [27]: 62; selectivity ratio [28]: 62; selectivity ratio [29]: 91; selectivity ratio [30]: 27; selectivity ratio [31]: 40; selectivity ratio (in vitro [32]): 71; selectivity ratio (in vitro [33]): 104; selectivity ratio (in vitro [34]): 71; selectivity ratio (in vitro [35]): 104 |
| COc1ccc2cc1Oc1ccc(cc1)C[C@H]1c3cc(c(OC)cc3CCN1C)Oc1c(OC)c(OC)cc3c1[C@@H](C2)N(C)CC3 | 0.165 (≈ 0.265 µM) | 0.0546 (≈ 0.0877 µM) | 5.4 (≈ 8.67 µM) | 11 (≈ 17.7 µM) | 10 (≈ 16.1 µM) | 19.5 (≈ 31.3 µM) | 10.5 (≈ 16.9 µM) | 6.6 (≈ 10.6 µM) | 1.5 (≈ 2.41 µM) | 5.6 (≈ 8.99 µM) | 8.4 (≈ 13.5 µM) | 9.4 (≈ 15.1 µM) | 5 (≈ 8.03 µM) | 33 | 99 | 67 | 202 | 61 | 183 | 118 | selectivity ratio [21]: 357; selectivity ratio [22]: 64; selectivity ratio [23]: 192; selectivity ratio [24]: 40; selectivity ratio [25]: 121; selectivity ratio [26]: 9; selectivity ratio [27]: 28; selectivity ratio [28]: 57; selectivity ratio [29]: 172; selectivity ratio [30]: 30; selectivity ratio [31]: 92; selectivity ratio (in vitro [32]): 34; selectivity ratio (in vitro [33]): 103; selectivity ratio (in vitro [34]): 51; selectivity ratio (in vitro [35]): 154 |
